From publication PMC12267067, “Targeting GRPR for sex hormone-dependent cancer after loss of E-cadherin” (Nature, 2025)
No end group written: not given here.

Key:
[1] = system: serine/threonine kinases in 1057 cells; experiment: Kinase assay (PamGene STK PamChip); assay type: cell-based, mouse; conditions: 10 nM GRP, 15 min
Description: Serine/threonine and tyrosine kinase activity were determined using STK PamChips (87102 PamGene International). All assays were done according to the manufacturer’s protocol. In brief, cells were seeded to 70% confluence and starved overnight the day after. Then, the medium was replaced by medium containing vehicle (0.1% DMSO) or 10 nM GRP and/or 1 µM RC and the cells incubated for 15 min. Cells were rinsed twice in PBS and then lysed in M-Per buffer (78503, ThermoFisher Scientific) containing Halt Phosphatase Inhibitor (78428, ThermoFisher Scientific) and Halt Protease Inhibitor (78437, ThermoFisher Scientific), both diluted 1:100. The lysates were immediately snap-frozen. Kinase activity was determined using Pamstation PS12 and 1 µg protein for the STK chips, according to the manufacturer’s protocol. The data were analysed using BioNavigator software (PamGene International), batch corrected using ComBat[71] and normalized using VSN[72]. Kinase activity was assessed using the 2018 version of the UKA tool using basic parameters (Scan rank from 4 to 12, 500 permutations, 90% homology, equivalent weight for each database, minimal prediction score of 300). The UKA tool infers the active kinase from the differentially phosphorylated peptides using databases and predicted interactions (PhosphoNet database).

[2] = system: human melanoma cells (MDA-MB-435S); experiment: Anoikis assay, human melanoma cells; assay type: cell-based; conditions: 10 nM GRP and/or 1 µM RC, 48 h, poly-HEMA, low serum, annexin V/7-AAD
Description: (§1) Six-well plates were coated with poly-HEMA to prevent cell attachment to the well surface. Cells were seeded in low-serum medium containing 10 nM GRP and/or 1 µM RC. Then, 48 hours after cell seeding, cells were collected and washed with ice-cold PBS twice and resuspended in annexin V binding buffer (556454, BD Biosciences) and incubated at room temperature in the dark with 7-amino-actinomycin D (7-AAD, 559925, BD Biosciences) and annexin-V for 15 min. Annexin V was coupled to FITC (556420, BD Biosciences) for the 1057 and MDA-MB-435S cell lines and to PE (556421, BD Biosciences) for the other cell lines. Cells were sorted using a FACS LSRFortessa (BD Biosciences) to determine the percentage of annexin V- and/or 7-AAD-positive cells using a 488 nm laser for annexin V-FITC and annexin V-PE and a 675 nm laser for7-AAD. All quantification was performed using Flow-Jo.

[3] = system: mouse melanoma cells (1057, 1014, 1062); experiment: Anoikis assay, mouse melanoma cells; assay type: cell-based; conditions: 48 h
Description: as §1

GRPR, Gαq/11 activation = experiment: IP1 detection (HTRF IP-one Gq kit); assay type: cell-based, mouse; conditions: 10 nM GRP, 30 min, 37 °C
Description: IP1 levels were quantified using the HTRF IP-one Gq detection kit (62IPAPEB, Revvity) following the manufacturer’s protocol. We treated 4,000 cells for 30 min at 37 °C in StimB buffer with 10 nM GRP, 1 µM RC-3095, 1 µM ICI-182,780 or DMSO. FRET signals (620 nm and 665 nm, excitation at 385 nm) were measured using a Clariostar plate reader (BMG Labtech).

## GRP: GRPR's natural agonist, endogenous ligand of GRPR (4011670 bachem) (VPLPAGGGTVLTKMYPRGNHWAVGHLM; not fully specified; ends and bridges not checked; UniProt P07492 24-50, looked up)
[1]
  kinases activated following GRPR activation: primarily triggered protein kinase C (PKC) and, to a lesser extent, PKAα and PRKX
[2]
  anoikis resistance (apoptotic cells without matrix attachment), GRPR+ human cells: promoted
[3]; 1057, 10 nM GRP and/or 1 µM RC, poly-HEMA, low serum, annexin V/7-AAD
  anoikis resistance (apoptotic cells without matrix attachment), GRPR+ mouse cells: promoted
[3]; male ∆Ecad (1062) and female Ecad (1014) cells, 10 nM GRP
  anoikis resistance, Grpr-negative mouse cells: did not promote anoikis resistance
GRPR, Gαq/11 activation
  IP1 production, GRPR-negative cells: not GRPR-negative cells
GRPR, Gαq/11 activation; 4,000 cells, StimB buffer, 1 µM RC-3095, 1 µM ICI-182,780 (pre-treatment)
  IP1 production, GRPR-positive cells: triggered IP1 production
